Literature values, collected in US9907752B2, “Bendamustine solid dispersions and continuous infusion” (priority 2014, dated 2018).
≈ marks a conversion by molar mass, not a printed value.

How the values were obtained:
[1] = aqueous solution

solubility in DMSO (DMSO)	solubility in water (water)	Compound	hydrolysis reaction half times [1]
		Cn1c(CCCC(=O)O)nc2cc(N(CCCl)CCCl)ccc21 [bendamustine, 4-{5-[Bis(2-chloroethyl)amino]-1-methyl-2-benzimidazolyl}butyric acid]	measured in hours rather than seconds
~36 mg/mL (≈ 198 mM)	~36 mg/mL (≈ 198 mM)	OC[C@@H](O)[C@@H](O)[C@H](O)[C@H](O)CO [mannitol]	
